From patent US20070213359A1 (ACADIA Pharmaceuticals Inc., priority 2005, published 2007) come the findings set out here.

Assay [1] concerns the target T1, Ghrelin receptor (Homo sapiens, UniProt Q92847). Description: Receptor Selection and Amplification Technology (R-SAT) assay. Further details: expressed in transfected cells; host or cells: NIH3T3. The conditions noted are these: for IC50: '—' not defined (nd used separately), read-out: RSAT pIC50 (converted); for Emax: read-out: RSAT Eff(%). The assay is classed as cell-based.
Target sequence in this assay (Q92847 whole entry): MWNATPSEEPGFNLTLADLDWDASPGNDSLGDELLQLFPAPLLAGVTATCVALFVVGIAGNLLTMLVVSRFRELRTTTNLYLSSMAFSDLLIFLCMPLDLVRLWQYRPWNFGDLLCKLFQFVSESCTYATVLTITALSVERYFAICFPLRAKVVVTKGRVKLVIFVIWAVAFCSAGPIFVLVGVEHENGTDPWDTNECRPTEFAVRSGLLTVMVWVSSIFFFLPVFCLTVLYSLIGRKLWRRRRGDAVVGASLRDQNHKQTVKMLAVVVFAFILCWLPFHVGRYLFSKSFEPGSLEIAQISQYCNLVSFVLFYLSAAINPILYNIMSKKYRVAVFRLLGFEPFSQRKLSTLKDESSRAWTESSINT

The target of assay [2] is T2, GHSR1a receptor (Homo sapiens, UniProt Q92847).
T2 construct: expressed in transfected cells; host or cells: HEK293 (membranes)
T2 sequence (Q92847 whole entry): as above
Description: 125I-Ghrelin binding assay. The conditions noted are these: displacement of 125I-ghrelin (0.053 nM), membranes of HEK293 cells transfected with GHSR1a, Cheng-Prussoff, '—' not defined.

For assay [3], the target named is T1, Ghrelin receptor. Description: Aeg. It counts as cell-based.
Target sequence in this assay (Q92847 whole entry): as above
For assay [4], the target named is T1, Ghrelin receptor. Description: pIC50. Further details: expressed in transfected cells; host or cells: NIH3T3. An excerpt: Table printed on a drawing sheet, Figure 1
First copying reader's note: The table stands under a dose-response plot; chemical names broken over two lines at a hyphen are joined by a blank.
Target sequence in this assay (Q92847 whole entry, looked up): as the sequence (Q92847 whole entry) above

For assay [5], the system named is fasted, male Sprague-Dawley rats. Description: Suppression of acute feeding response in fasted rats. The assay is classed as in vivo, rat. Conditions: intraperitoneal, 30 mg/kg.
Where [6] appears, read: read-out: Binding pKi (converted).
Setting [7] is: negative logarithm of ligand concentration causing 50% inhibition of constitutive receptor response, transfected NIH3T3 cells.
The mark [8] stands for this setting: percent inhibition at saturating ligand, normalized to reference ligand Substance P analog = 100%.

Where two headings read alike, the source gives them in different places.

For `COc1cccc2c(C(=O)c3ccccc3)cn(CCCN3CCC(c4nc5ccccc5s4)CC3)c12`, the values for the IC50 in assay [1] ([…]) and in assay [3] were 0.2 nM and 63.1 nM, respectively. Further, the Emax in assay [1] was found to be 107%. This compound also had a Ki in assay [2] (Binding pKi) of 39.8 nM.
With `COc1cccc2c(C(=O)Cc3ccccc3)cn(CCCN3C4CCC3CC(CCc3ccccc3)C4)c12` (stereo not drawn), the IC50 in assay [1] ([…]) was 0.251 nM. Moreover, the Emax in assay [1] was found to be 141%. The Ki in assay [2] (setting [6]) is 10 nM.
With `COc1cccc2c(C(=O)C3CC3)cn(CCCN3CCC(Oc4ccc(F)cc4)CC3)c12`, the values for the IC50 in assay [1] ([…]) and in assay [3] were 0.398 nM and 39.8 nM, respectively. In addition, the Emax in assay [1] is 101%. The compound further gave a Ki in assay [2] (Binding pKi) of 50.1 nM.
In the case of `COc1cccc2c(C#N)cn(CCCN3C4CCC3CC(Oc3ccc(F)cc3)C4)c12` (stereo not drawn), in assay [1] (setting [7]), the IC50 is 15800 nM. Also, the Emax in assay [1] (setting [8]) worked out at 107%. Also, the Ki in assay [2] (setting [6]) was 200 nM.
For `COc1cccc2c(C#N)cn(CCCN3C4CCC3CC(CC(=O)c3ccc(Cl)cc3)C4)c12` (stereo not drawn), the Emax in assay [1] (setting [8]) stood at 12%. The Ki in assay [2] (setting [6]) is 79.4 nM.
In the case of `CC(=O)c1c(C)n(CCCN2C3CCC2CC(Oc2ccccc2Cl)C3)c2c(Br)cccc12` (stereo not drawn), the Emax in assay [1] (setting [8]) amounted to 37%. In assay [2] (setting [6]), the Ki was 100 nM.
On to `COc1cccc2c(C#N)cn(CCCN3CCCC(Cc4ccccc4Cl)C3)c12` (stereo not drawn), for which, in assay [1] (setting [8]), the Emax was 62%. Moreover, the Ki in assay [2] (setting [6]) was 200 nM.
`O=C(c1cn(CCCN2C3CCC2CC(Oc2ccccc2Cl)C3)c2ncccc12)C(F)(F)F` (stereo not drawn): in assay [1] (setting [8]), the Emax was found to be 23%. Also, in assay [2] (setting [6]), the Ki was 251 nM.
Take `CC(=O)c1c(C)n(CCCN2CCCN(Cc3ccccc3Cl)CC2)c2c(Br)cccc12`: in assay [1] (setting [8]), the Emax was -14%. The Ki in assay [2] (setting [6]) is 398 nM.
For `COc1cccc2c(C(C)=O)cn(CC(C)CN3C4CCC3CC(CC(=O)c3ccc(Cl)cc3)C4)c12` (stereo not drawn), the Emax in assay [1] amounted to 16%. The Ki in assay [2] (setting [6]) was 398 nM.
Consider `CCc1cccc2c(C(C)=O)cn(CCCN3CCC(CCOc4ccc(Cl)cc4)CC3)c12`, for which the Emax in assay [1] (setting [8]) worked out at 76%. For the same compound, in assay [2] (setting [6]), the Ki is 501 nM.
Take `O=C(CC1CC2CCC(C1)N2CCCn1cc(C(=O)C(F)(F)F)c2cccnc21)c1ccc(Cl)cc1` (stereo not drawn): in assay [1] (setting [8]), the Emax was determined as 10%. The Ki in assay [2] (setting [6]) is 631 nM.
In assay [4], `CCCCC1CCN(CCCn2cc(C(C)=O)c3ccccc32)CC1` [1-(1-(3-(4-butylpiperidin-1-yl)propyl)-1H-indol-3-yl)ethanone] showed an IC50 of 158 nM. Besides, the suppression of feeding result in assay [5] is “Robust suppression of feeding”.
Consider `COc1cccc2c(C(=O)NCC(C)C)cn(CCCN3CCC(c4nc5ccccc5s4)CC3)c12` [drawing 234], for which the IC50 in assay [1] ([…]) was 1.58 nM. In addition, the Emax in assay [1] stood at 106%. The Ki in assay [2] (Binding pKi) was 1000 nM.
As to `CC(=O)c1cn(CCCN2C3CCC2CC(CCc2ccccc2)C3)c2ccccc12` (stereo not drawn) [drawing 267], the IC50 in assay [1] (setting [7]) is 5.01 nM. Also, in assay [1] (setting [8]), the Emax is 105%. In assay [2] (setting [6]), the Ki was 316 nM.
As for `COc1cccc2c(C(C)=O)cn(CCCN3CCC(Oc4ccc(Cl)cc4)CC3)c12` [drawing 276], in assay [1] ([…]), the IC50 was 5.01 nM. Besides, in assay [1], the Emax turned out to be 144%. In assay [2] (setting [6]), the Ki was 200 nM.
`COc1cccc2c(C(C)=O)cn(CCCN3CCC(c4nc5ccccc5s4)CC3)c12` [drawing 280]: the IC50 in assay [1] (setting [7]) is 6.31 nM. The “RSAT Eff(%)” value in assay [1] (setting [8]) was found to be 128%. For the same compound, the Ki in assay [2] (setting [6]) was 398 nM.
The corresponding values for `COc1cccc2c(C(C)=O)cn(CCCN3CCC(Oc4ccc(Cl)cc4)CC3)c12` [drawing 300] are 7.94 nM, 129% and 126 nM.
Take `COc1cccc2c(C(C)=O)cn(CCCN3CCC(c4nc5ccccc5s4)CC3)c12` [drawing 310]: the IC50 in assay [1] ([…]) is 10 nM. The Emax in assay [1] came out at 102%. The Ki in assay [2] (setting [6]) was 158 nM.
Take `CCCOC1CCN(CCCn2cc(C(C)=O)c3cccc(OC)c32)CC1` [drawing 333]: the IC50 in assay [1] (setting [7]) is 15.8 nM. The Emax in assay [1] (setting [8]) came to 112%. In assay [2] (setting [6]), the Ki is 2000 nM.
Consider `CC(=O)c1cn(CCCN2C3CCC2CC(CCc2ccccc2)C3)c2ccccc12` (stereo not drawn) [drawing 433], for which the IC50 in assay [1] (setting [7]) is 63.1 nM. Also, the “RSAT Eff(%)” value in assay [1] (setting [8]) turned out to be 96%. For the same compound, the Ki in assay [2] (setting [6]) was 1580 nM.
The corresponding values for `CC(=O)c1cn(CCCN2CCC(Oc3ccc(F)cc3)CC2)c2ccccc12` [drawing 551] are 398 nM, 96% and 2000 nM.
Turning to `COc1ccccc1C1CCN(CCCn2cc(C(C)=O)c3ccccc32)CC1` [drawing 576], the IC50 in assay [1] (setting [7]) is 501 nM. For the same compound, in assay [1] (setting [8]), the “RSAT Eff(%)” value was 106%. The Ki in assay [2] (setting [6]) is 1260 nM.
`CCCCC1CCN(CCCn2cc(C(C)=O)c3ccccc32)CC1` [drawing 584]: the IC50 in assay [1] ([…]) is 631 nM. The Emax in assay [1] came out at 77%. For the same compound, the Ki in assay [2] (Binding pKi) was 3980 nM.
Regarding `CC(=O)c1cn(CCCN2CCC(Oc3ccccc3Cl)CC2)c2ccccc12` [drawing 599], the “RSAT Eff(%)” value in assay [1] (setting [8]) was found to be 116%. The Ki in assay [2] (setting [6]) is 2510 nM.
With `O=C(NCc1cccc(Cl)c1)c1cn(CCCN2CCC(Oc3ccc(F)cc3)CC2)c2ccccc12` [drawing 659], the “RSAT Eff(%)” value in assay [1] came out at 67%. The Ki in assay [2] (setting [6]) is 1580 nM.
